This passage reports photoluminescence quantum yield results from the Deep4Chem optical property database.

This data set is described as follows: photoluminescence quantum yield (fraction); solvent given as SMILES.

`Cc1cccc(C2=CC3=C(c4c(C)cc(C)cc4C)c4cc(-c5cccc(C)c5)c(-c5cccc(C)c5)n4[B-](F)(F)[N+]3=C2c2cccc(C)c2)c1` gave a photoluminescence quantum yield (in C1CCCCC1) of 0.41; a photoluminescence quantum yield (in C1CCOC1) of 0.33; a photoluminescence quantum yield (in CC#N) of 0.24; a photoluminescence quantum yield (in Cc1ccccc1) of 0.44; a photoluminescence quantum yield (in ClCCl) of 0.3.

The molecule `c1ccc(-c2nc(-c3ccccc3)c(N(c3ccccc3)c3ccccc3)s2)cc1` displayed a photoluminescence quantum yield (in ClC(Cl)Cl) of 0.43.

For the molecule `COc1cc2sc3nc(-c4ccccc4)sc3c2cc1OC`, where the note is “in CS(C)=O”, the photoluminescence quantum yield stood at 0.52.

As for `c1cc2c3c(cccc3c1)C(N1CCOCCOCCOCCOCC1)=N2`, under “in CC#N”, the photoluminescence quantum yield was 0.004.

Turning to `CN(C)c1ccc(C2=Nc3sc4c(F)c(F)c(F)c(F)c4[n+]3[B-](F)(F)O2)cc1`, the photoluminescence quantum yield came to 0.47 (in C1CCOC1), 0.02 (in CC#N), 0.65 (in Cc1ccccc1) and 0.66 (in ClCCl).

For the setting “in ClCCl”, `Cc1ccc(N(c2ccc(C)cc2)c2ccc3c4cccc5c(N(c6ccc(C)cc6)c6ccc(C)cc6)ccc(c6cccc2c63)c54)cc1` returned a photoluminescence quantum yield of 0.61.

Where the note is “in C1CCCCC1”, `Cc1cc(C)c(B2c3cc(C(C)(C)C)ccc3-c3c(-c4ccccc4)ccc4cc(C(C)(C)C)cc2c34)c(C)c1` had a photoluminescence quantum yield of 0.91.

For `O=c1c2ccccc2n(-c2ccc(-c3ccc(-n4c5ccccc5c(=O)c5ccccc54)cc3)cc2)c2ccccc12`, the photoluminescence quantum yield (in ClCCl) was 0.31.

Where the note is “in ClC(Cl)Cl”, `COc1ccc(-c2oc3cccc4c5c(-c6ccc(OC)c(OC)c6)c(=N)oc6cccc(c2c34)c65)cc1OC` yielded a photoluminescence quantum yield of 0.41.

Take `COc1ccc(C2=CC(c3cc(OC)cc(OC)c3)=[O+][B-](F)(F)O2)cc1`: the photoluminescence quantum yield reads like this: (in CC#N) 0.02; (in CC(C)=O) 0.04; (in CCCCCC) 0.25; (in Cc1ccccc1) 0.19; (in ClCCl) 0.08.

For the setting “in ClCCl”, `COc1ccc(N(c2ccccc2)c2ccc3ccc4c(N(c5ccccc5)c5ccc(OC)cc5)ccc5ccc2c3c54)cc1` had a photoluminescence quantum yield of 0.46.

Under “in CC#N”, `COc1ccc(/C=C/c2ccc(-c3ccc(C)cn3)nc2)cc1` gave a photoluminescence quantum yield of 0.28.

For `CCCCCCn1c2cc(C(=O)OCC)ccc2c2c1c1ccc(C(=O)OCC)cc1n2CCCCCC`, under “in CCCO”, the photoluminescence quantum yield is 0.6.

Take `O=C1OC(c2ccccc2)=C/C1=C\c1ccc([N+](=O)[O-])cc1`: the photoluminescence quantum yield (in C1COCCO1) was 0.083.

The molecule `COc1ccccc1-c1nc2c([nH]1)C1=CC(=O)S[C@]1(C)[C@@]1(C)SC(=O)C=C21` registered a photoluminescence quantum yield (in CC#N) of 0.11.

Regarding `COc1c2ccccc2c(OC)c2c1c1ccc(F)cc1n2C`, the photoluminescence quantum yield was 0.36 (in C1CCCCC1), 0.27 (in CC#N), 0.34 (in CO) and 0.45 (in ClCCl).

`Cc1ccc(-c2c3nc(c(-c4ccc(C)cc4)c4ccc([nH]4)c(-c4ccc(OC(=O)C(C)c5ccc(-c6ccccc6)c(F)c5)cc4)c4nc(c(-c5ccc(C)cc5)c5ccc2[nH]5)C=C4)C=C3)cc1` (configuration not stated) gave a photoluminescence quantum yield (in ClCCl) of 0.131.

On to `COc1cccc(C2=C(c3ccc(C(C)(C)C)cc3)C(c3ccc(C(C)(C)C)cc3)=[N+]3C2=C(c2ccccc2)c2c(-c4cccc(OC)c4)c(-c4ccc(C(C)(C)C)cc4)c(-c4ccc(C(C)(C)C)cc4)n2[B-]3(F)F)c1`, for which the photoluminescence quantum yield by setting is: (in C1CCCCC1) 0.44; (in C1CCOC1) 0.45; (in CC#N) 0.38; (in Cc1ccccc1) 0.54; (in ClCCl) 0.58.

Take `COc1ccc(NC(=O)C(C(=O)Nc2ccc(OC)cc2)C(c2ccccc2O)c2c(C)[nH]c3ccccc23)cc1` (configuration not stated): the photoluminescence quantum yield was 0.0094 (in CO) and 0.013 (in CS(C)=O).

In turn, `CCN1\C(=C/C=C/C=C/C2=[N+](CC)c3ccc4cc(Br)ccc4c3C2(C)C)C(C)(C)c2c1ccc1cc(Br)ccc21` returned a photoluminescence quantum yield (in CS(C)=O) of 0.381.

With `Cc1ccc2sc3cc(CCC(=O)O)ccc3c(=O)c2c1`, the photoluminescence quantum yield by setting is: (in CC#N) 0.0041; (in CC(C)O) 0.054; (in CCO) 0.082; (in CO) 0.12; (in OCCO) 0.23.

As for `c1csc(-c2ccc(-c3cccs3)s2)c1`, the photoluminescence quantum yield is 0.09 (in CC#N) and 0.05 (in ClCCl).

As for `c1ccc(-c2ccc(-c3ccc(N(c4ccccc4)c4ccccc4)cc3)c3nsnc23)cc1`, the photoluminescence quantum yield by setting is: (in C1CCOC1) 0.105; (in CC(C)=O) 0.01; (in CCCCCC) 0.492; (in CCOCC) 0.201.

For the setting “in ClCCl”, `c1ccc(-c2ccc(-c3cc(-c4ccccn4)nc(-c4ccccn4)c3)cc2)cc1` showed a photoluminescence quantum yield of 0.18.

As to `CCCCCCc1cc2c(s1)-c1cc3c(cc1NB2c1ccccc1)-c1sc(CCCCCC)cc1B(c1ccccc1)N3`, the photoluminescence quantum yield (in ClCCl) is 0.2.

`CCCCC1(CCCC)c2cc(C#Cc3ccc(C=C4c5ccccc5C=Cc5ccccc54)cc3)ccc2-c2ccc(C#Cc3ccc(C=C4c5ccccc5C=Cc5ccccc54)cc3)cc21` had a photoluminescence quantum yield (in C1CCOC1) of 0.00084.

In turn, `Fc1cc(-c2ccc(-c3nc4cc(Br)ccc4[nH]3)cc2)ccc1-c1ccc(-c2nc3cc(Br)ccc3[nH]2)cc1` yielded a photoluminescence quantum yield (in CN(C)C=O) of 0.48.

Under “in ClCCl”, `c1ccc2cc(-c3c4ccccc4c(-c4ccc(-c5ccc(-n6c7ccccc7c7ccccc76)cc5)cc4)c4ccccc34)ccc2c1` returned a photoluminescence quantum yield of 0.7.

In the case of `N#Cc1ccc2c(c1)CCc1nc(-c3ccc([N+](=O)[O-])cc3)c3c(c1-2)CCc1cc(C#N)ccc1-3`, the photoluminescence quantum yield by setting is: (in C1CCOC1) 0.043; (in CC#N) 0.039; (in CCCCCC) 0.3; (in CCOC(C)=O) 0.015; (in CO) 0.01; (in CS(C)=O) 0.073. Besides, the photoluminescence quantum yield is, setting by setting: (in Cc1ccccc1) 0.014; (in ClCCl) 0.292.

With `Cc1ccc(-c2cc(/C=C/c3ccc(N(c4ccccc4)c4ccccc4)cc3)c(C#N)c(N3CCCCC3)c2)cc1`, under “in CS(C)=O”, the photoluminescence quantum yield came out at 0.58.

On to `Cc1ccc(-c2cc(-c3ccc(N(C)C)cc3)c3c(N)nc(N4CCCC4)c(C#N)c3n2)cc1`, for which the photoluminescence quantum yield is, setting by setting: (in CC#N) 0.095; (in c1ccccc1) 0.083.

Under “in CCO”, `Cc1c(COC(=O)Cc2ccccc2)n2c(OCC(=O)Cc3ccccc3)c(C)c(=O)n2c1=O` had a photoluminescence quantum yield of 0.836.

As for `CC(=O)[B-]1(C(C)=O)OC(c2ccc3ccccc3c2)=CC(c2ccc3ccccc3c2)=[O+]1`, the photoluminescence quantum yield by setting is: (in CC#N) 0.56; (in ClC(Cl)(Cl)Cl) 0.61.

Consider `O=P1(c2ccccc2)C2=C(c3ccccc31)S(=O)(=O)c1ccccc12` (configuration not stated), for which the photoluminescence quantum yield (in ClCCl) was determined as 0.98.

In the case of `CCOC(=O)c1cc(C(=O)OCC)c2cc(N(CC)CC)ccc2n1`, the photoluminescence quantum yield (in CCO) came to 0.49.

Turning to `CCC1=C(C)C2=Cc3c4ccccc4c4n3[B-](c3ccc(OC)cc3)(Oc3ccccc3-4)[N+]2=C1C` (configuration not stated), the photoluminescence quantum yield by setting is: (in CC#N) 0.67; (in CCCCCC) 0.71; (in Cc1ccccc1) 0.68; (in ClCCl) 0.7.

Where the note is “in ClCCl”, `Fc1ccc(C#Cc2nc(C#Cc3ccc(F)cc3)c(C#Cc3ccc(F)cc3)c(C#Cc3ccc(F)cc3)c2C#Cc2ccc(F)cc2)cc1` came in with a photoluminescence quantum yield of 0.47.

Turning to `N#Cc1c(-n2nnc3ccccc32)n([C@H]2C[C@H](O)[C@@H](CO)O2)c2ncnc(N)c12`, where the note is “in CO”, the photoluminescence quantum yield turned out to be 0.002.

For the setting “in CCO”, `N#CC1=C(c2ccc(-c3cccs3)s2)CCC1` came in with a photoluminescence quantum yield of 0.04.

`CC1=N/C(=C\c2ccc(N(C)C)cc2)C(=O)N1C` showed a photoluminescence quantum yield (in C1CCCCC1) of 0.0001; a photoluminescence quantum yield (in C1CCOC1) of 0.0004; a photoluminescence quantum yield (in CC#N) of 0.0003; a photoluminescence quantum yield (in CO) of 0.0003; a photoluminescence quantum yield (in CS(C)=O) of 0.0002; a photoluminescence quantum yield (in ClCCl) of 0.0009. The molecule also gave a photoluminescence quantum yield (in O) of 0.0002.

For the molecule `C[n+]1ccc(-c2cc[n+](C)cc2)cc1`, the photoluminescence quantum yield (in CC#N) came to 0.02.

Consider `COc1ccc(NC(=O)C(C(=O)Nc2ccc(OC)cc2)C(c2cc(F)ccc2O)c2c[nH]c3ccc(OC)cc23)cc1` (configuration not stated), for which the photoluminescence quantum yield (in CS(C)=O) was 0.018.

`O=C1c2cccc3c(-n4c5ccccc5c5ccccc54)ccc(c23)C(=O)N1C1CCCCC1`: the photoluminescence quantum yield (in C1CCOC1) stood at 0.033, the photoluminescence quantum yield (in CCCCCC) worked out at 0.872, the photoluminescence quantum yield (in ClC(Cl)Cl) was found to be 0.21 and the photoluminescence quantum yield (in ClCCl) stood at 0.03.

In the case of `F[B-]1(F)n2c(c(-c3ccccc3)c3c2C2=Cc4ccccc4OC2CC3)C=C2C(c3ccccc3)=C3CCC4Oc5ccccc5C=C4C3=[N+]21` (configuration not stated), the photoluminescence quantum yield (in ClC(Cl)Cl) was found to be 0.06.

For the molecule `O=C1c2ccccc2C2=Nc3ccc4ccccc4[n+]3[B-](F)(F)N12`, the photoluminescence quantum yield (in ClCCl) came to 0.74.

`Fc1c(F)c(-n2c3ccccc3c3ccccc32)c(F)c(F)c1/C=C/c1ccc(C(=C(c2ccccc2)c2ccccc2)c2ccccc2)cc1`: the photoluminescence quantum yield (in Cc1ccccc1) stood at 0.003.

Consider `CC(C)(C)c1ccc2c(c1)c1cc(C(C)(C)C)ccc1n2-c1ccc2oc3nc4oc5ccc(C(F)(F)F)cc5c4cc3c2c1`, for which the photoluminescence quantum yield came out at 0.113 (in C1CCCCC1); 0.073 (in C1CCOC1); 0.032 (in CC#N); 0.124 (in CS(C)=O); 0.094 (in Cc1ccccc1); 0.058 (in ClC(Cl)Cl).

`CC(C)(C)NC(=O)c1cc2ccccc2c2ccc3c4ccccc4c4ccccc4c3c12`: for the setting “in ClCCl”, the photoluminescence quantum yield was 0.06.

In the case of `O=S(=O)(/N=c1\oc2cccc3c4c(-c5ccccc5)oc5cccc(c(c1-c1ccccc1)c23)c54)C(F)(F)F`, the photoluminescence quantum yield amounted to 0.7 (in CCCCCC); 0.78 (in CO); 0.6 (in CS(C)=O); 0.92 (in ClC(Cl)Cl); 0.94 (in ClCCl); 0.05 (in O).
